Assay results published in patent publication US20100267561A1, “HERBICIDAL PYRIDAZINONE DERIVATIVES” (priority 2007, published 2010).

Key:
Type in all cases: in vivo
[1] = test system: rice (Oryza sativa); assay: Test B flooded paddy test plant response
How it was run: (§1)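 Rice, umbrella sedge, ducksalad and barnyardgrass at 2-leaf stage; pots flooded to 3 cm, compounds applied into paddy water, depth held throughout. Greenhouse 13 to 15 days, then visual rating vs untreated controls on 0–100 scale (0 no effect, 100 complete control); dash means no test result.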

[2] = test system: ducksalad (Heteranthera limosa); assay: Test B flooded paddy test plant response
How it was run: as §1

[3] = test system: barnyardgrass (Echinochloa crus-galli); assay: Test B flooded paddy test plant response
How it was run: as §1

[4] = test system: umbrella sedge (Cyperus difformis); assay: Test B flooded paddy test plant response
How it was run: as §1

[5] = test system: corn (Zea mays); assay: Test B pre-/postemergence plant response; details: for Corn plant response rating: 8 g ai/ha
From the text: (§2) Seeds of plant species selected from blackgrass (Alopecurus myosuroides), downy bromegrass (Bromus tectorum), green foxtail (Setaria viridis), Italian ryegrass (Lolium multiflorum), wheat (Triticum aestivum), wild oat (Avena fatua), catchweed bedstraw (Galium aparine), bermudagrass (Cynodon dactylon), surinam grass (Brachiaria decumbens), cocklebur (Xanthium strumarium), corn (Zea mays), large crabgrass (Digitaria sanguinalis), woolly cupgrass (Eriochloa villosa), giant foxtail (Setaria faberii), goosegrass (Eleusine indica), johnsongrass (Sorghum halepense), kochia (Kochia scoparia), lambsquarters (Chenopodium album), morningglory (Ipomoea coccinea), eastern black (E.B.) nightshade (Solanum ptycanthum), yellow nutsedge (Cyperus esculentus), pigweed (Amaranthus retroflexus), common ragweed (Ambrosia elation), Russian thistle (Salsola iberica), soybean (Glycine max), common (oilseed) sunflower (Helianthus annuus), and velvetleaf (Abutilon theophrasti) were planted and treated preemergence with test chemicals formulated in a non-phytotoxic solvent mixture which included a surfactant.
(§3) At the same time, plants selected from these crop and weed species and also winter barley (Hordeum vulgare), canarygrass (Phalaris minor), chickweed (Stellaria media) and windgrass (Apera spica-venti) were treated with postemergence applications of some of the test chemicals formulated in the same manner. Plants ranged in height from 2 to 18 cm (1- to 4-leaf stage) for postemergence treatments.
(§4) Plant species in the flooded paddy test consisted of rice (Oryza sativa), umbrella sedge (Cyperus difformis), ducksalad (Heteranthera limosa) and barnyardgrass (Echinochloa crus-galli) grown to the 2-leaf stage for testing. At time of treatment, test pots were flooded to 3 cm above the soil surface, treated by application of test compounds directly to the paddy water, and then maintained at that water depth for the duration of the test. Treated plants and controls were maintained in a greenhouse for 13 to 15 days, after which time all species were compared to controls and visually evaluated. Plant response ratings, summarized in Table B, are based on a scale of 0 to 100 where 0 is no effect and 100 is complete control. A dash (-) response means no test result.

[6] = test system: common (oilseed) sunflower (Helianthus annuus); assay: Test B pre-/postemergence plant response; details: Preemergence
From the text: as §2, §3, §4

[7] = test system: downy bromegrass (Bromus tectorum); assay: Test B pre-/postemergence plant response; details: for Bromegrass, Downy plant response rating: 8 g ai/ha
From the text: as §2, §3, §4

[8] = test system: morningglory (Ipomoea coccinea); assay: Test B pre-/postemergence plant response; details: for Morningglory plant response rating: 8 g ai/ha
From the text: as §2, §3, §4

[9] = test system: green foxtail (Setaria viridis); assay: Test B pre-/postemergence plant response; details: for Foxtail, Green plant response rating: 8 g ai/ha
From the text: as §2, §3, §4

[10] = test system: velvetleaf (Abutilon theophrasti); assay: Test B pre-/postemergence plant response; details: for Velvetleaf plant response rating: 8 g ai/ha
From the text: as §2, §3, §4

[11] = test system: surinam grass (Brachiaria decumbens); assay: Test B pre-/postemergence plant response; details: for Surinam Grass plant response rating: 8 g ai/ha
From the text: as §2, §3, §4

[12] = test system: wild oat (Avena fatua); assay: Test B pre-/postemergence plant response; details: for Oat, Wild plant response rating: 8 g ai/ha
From the text: as §2, §3, §4

[13] = test system: large crabgrass (Digitaria sanguinalis); assay: Test B pre-/postemergence plant response; details: for Crabgrass, Large plant response rating: 8 g ai/ha
From the text: as §2, §3, §4

[14] = test system: wheat (Triticum aestivum); assay: Test B pre-/postemergence plant response; details: for Wheat plant response rating: 8 g ai/ha
From the text: as §2, §3, §4

[15] = Flood (flooded paddy test), 62 g ai/ha, scale 0 to 100, 0 no effect, 100 complete control
[16] = Flood (flooded paddy test), 125 g ai/ha, scale 0 to 100, 0 no effect, 100 complete control
[17] = Flood (flooded paddy test), 250 g ai/ha, scale 0 to 100, 0 no effect, 100 complete control
[18] = Flood, 31 g ai/ha, scale 0 to 100
[19] = Postemergence, 16 g ai/ha, scale 0 to 100
[20] = Postemergence, 31 g ai/ha, scale 0 to 100, 0 no effect, 100 complete control
[21] = Postemergence, 62 g ai/ha, scale 0 to 100
[22] = Preemergence, 16 g ai/ha, scale 0 to 100 (0 no effect, 100 complete control)
[23] = Preemergence, 31 g ai/ha, 0 to 100 scale, 0 no effect, 100 complete control
[24] = Preemergence, 62 g ai/ha, scale 0 to 100

In the case of `CCc1cc(-c2ccc(C(F)(F)F)cc2)nn1-c1c(OS(C)(=O)=O)cnn(C)c1=O` [Compound 19], the “Plant response rating, Rice” value [1, 15] is reported as 20, the “Plant response rating, Rice” value [1, 16] is reported as 60 and the “Plant response rating, Rice” value [1, 17] is reported as 70. For the same compound, the “Plant response rating, Rice” value [1, 18] was 0, the “Plant response rating, Ducksalad” value [2, 15] was 0 and the “Plant response rating, Ducksalad” value [2, 16] was 0. For the same compound, the “Plant response rating, Ducksalad” value [2, 17] was 25, the “Plant response rating, Ducksalad” value [2, 18] was 0 and the “Plant response rating, Barnyardgrass” value [3, 15] was 30. The “Plant response rating, Barnyardgrass” value [3, 16] was 60, the “Plant response rating, Barnyardgrass” value [3, 17] was 75 and the “Plant response rating, Barnyardgrass” value [3, 18] was 0. For the same compound, the “Plant response rating, Sedge, Umbrella” value [4, 15] was 30, the “Plant response rating, Sedge, Umbrella” value [4, 16] was 60 and the “Plant response rating, Sedge, Umbrella” value [4, 17] was 70. For the same compound, the “Plant response rating, Sedge, Umbrella” value [4, 18] was 0, the “Corn plant response rating” value ([5]; postemergence, 0-100 scale) was 0 and the “Plant response rating, Corn” value [5, 19] was 0. For the same compound, the “Plant response rating, Corn” value [5, 20] was 0, the “Plant response rating, Corn” value [5, 21] was 95 and the “Plant response rating, Corn” value [5, 22] was 85. The “Plant response rating, Corn” value [5, 23] was 95, the “Plant response rating, Corn” value [5, 24] was 98 and the “Corn plant response rating” value ([5]; Preemergence, scale 0 to 100) was 70. The “Plant response rating, Sunflower” value ([6]; 16 g ai/ha, scale 0 to 100 (0 no effect, 100 complete control)) was 0, the “Plant response rating, Sunflower” value ([6]; 31 g ai/ha, 0 to 100 scale, 0 no effect, 100 complete control) was 0 and the “Plant response rating, Sunflower” value ([6]; 62 g ai/ha, scale 0 to 100) was 0. The “Sunflower plant response rating” value ([6]; 8 g ai/ha, scale 0 to 100) was 0, the “Bromegrass, Downy plant response rating” value ([7]; postemergence, 0-100 scale) was 10 and the “Plant response rating, Bromegrass, Downy” value [7, 19] was 75. For the same compound, the “Plant response rating, Bromegrass, Downy” value [7, 20] was 75, the “Plant response rating, Bromegrass, Downy” value [7, 21] was 90 and the “Plant response rating, Bromegrass, Downy” value [7, 22] was 0. For the same compound, the “Plant response rating, Bromegrass, Downy” value [7, 23] was 30, the “Plant response rating, Bromegrass, Downy” value [7, 24] was 60 and the “Bromegrass, Downy plant response rating” value ([7]; Preemergence, scale 0 to 100) was 0. For the same compound, the “Morningglory plant response rating” value ([8]; postemergence, 0-100 scale) was 0, the “Plant response rating, Morningglory” value [8, 19] was 0 and the “Plant response rating, Morningglory” value [8, 20] was 0. For the same compound, the “Plant response rating, Morningglory” value [8, 21] was 0, the “Plant response rating, Morningglory” value [8, 22] was 0 and the “Plant response rating, Morningglory” value [8, 23] was 0. For the same compound, the “Plant response rating, Morningglory” value [8, 24] was 0, the “Morningglory plant response rating” value ([8]; Preemergence, scale 0 to 100) was 0 and the “Foxtail, Green plant response rating” value ([9]; postemergence, 0-100 scale) was 60. The “Plant response rating, Foxtail, Green” value [9, 19] was 100, the “Plant response rating, Foxtail, Green” value [9, 20] was 100 and the “Plant response rating, Foxtail, Green” value [9, 21] was 100. For the same compound, the “Plant response rating, Foxtail, Green” value [9, 22] was 100, the “Plant response rating, Foxtail, Green” value [9, 23] was 100 and the “Plant response rating, Foxtail, Green” value [9, 24] was 100. For the same compound, the “Foxtail, Green plant response rating” value ([9]; Preemergence, scale 0 to 100) was 85, the “Velvetleaf plant response rating” value ([10]; postemergence, 0-100 scale) was 0 and the “Plant response rating, Velvetleaf” value [10, 19] was 0. The “Plant response rating, Velvetleaf” value [10, 20] was 0, the “Plant response rating, Velvetleaf” value [10, 21] was 0 and the “Plant response rating, Velvetleaf” value [10, 22] was 0. The “Plant response rating, Velvetleaf” value [10, 23] was 0, the “Plant response rating, Velvetleaf” value [10, 24] was 0 and the “Velvetleaf plant response rating” value ([10]; Preemergence, scale 0 to 100) was 0. For the same compound, the “Surinam Grass plant response rating” value ([11]; postemergence, 0-100 scale) was 90, the “Plant response rating, Surinam Grass” value [11, 19] was 100 and the “Plant response rating, Surinam Grass” value [11, 20] was 100. The “Plant response rating, Surinam Grass” value [11, 21] was 100, the “Plant response rating, Surinam Grass” value [11, 22] was 80 and the “Plant response rating, Surinam Grass” value [11, 23] was 98. The “Plant response rating, Surinam Grass” value [11, 24] was 100, the “Surinam Grass plant response rating” value ([11]; Preemergence, scale 0 to 100) was 80 and the “Oat, Wild plant response rating” value ([12]; postemergence, 0-100 scale) was 90. For the same compound, the “Plant response rating, Oat, Wild” value [12, 19] was 98, the “Plant response rating, Oat, Wild” value [12, 20] was 100 and the “Plant response rating, Oat, Wild” value [12, 21] was 100. The “Plant response rating, Oat, Wild” value [12, 22] was 75, the “Plant response rating, Oat, Wild” value [12, 23] was 95 and the “Plant response rating, Oat, Wild” value [12, 24] was 95. The “Oat, Wild plant response rating” value ([12]; Preemergence, scale 0 to 100) was 60, the “Crabgrass, Large plant response rating” value ([13]; postemergence, 0-100 scale) was 80 and the “Plant response rating, Crabgrass, Large” value [13, 19] was 85. The “Plant response rating, Crabgrass, Large” value [13, 20] was 95, the “Plant response rating, Crabgrass, Large” value [13, 21] was 100 and the “Plant response rating, Crabgrass, Large” value [13, 22] was 100. For the same compound, the “Plant response rating, Crabgrass, Large” value [13, 23] was 100, the “Plant response rating, Crabgrass, Large” value [13, 24] was 100 and the “Crabgrass, Large plant response rating” value ([13]; Preemergence, scale 0 to 100) was 50. For the same compound, the “Wheat plant response rating” value ([14]; postemergence, 0-100 scale) was 0, the “Plant response rating, Wheat” value [14, 19] was 60 and the “Plant response rating, Wheat” value [14, 20] was 85. The “Plant response rating, Wheat” value [14, 21] was 98, the “Plant response rating, Wheat” value [14, 22] was 10 and the “Plant response rating, Wheat” value [14, 23] was 90. The “Plant response rating, Wheat” value [14, 24] was 95 and the “Wheat plant response rating” value ([14]; Preemergence, scale 0 to 100) was 0.
